Data: the supplement of paper PMC13207355

How the values were obtained:
Settings in all cases: exposure time: 72 h
E21 [1] = patient-derived glioblastoma stem cells of mesenchymal subtype; test: phenotypic distance (Euclidean, principal components) from DMSO controls (arbitrary units); higher = stronger morphological change
FT3469 [2] = normal neural stem cell line; test: as above
E28 [3] = patient-derived glioblastoma stem cells of classical subtype; test: as above
E57 [4] = patient-derived glioblastoma stem cells of mesenchymal subtype; test: as above
E34 [5] = patient-derived glioblastoma stem cells of proneural subtype; test: as above
E13 [6] = patient-derived glioblastoma stem cells of classical subtype; test: as above
E31 [7] = patient-derived glioblastoma stem cells of proneural subtype; test: as above
E21 [8] = test: surviving fraction (nuclei count normalised to DMSO); higher = more cells surviving (less toxic)
FT3469 [9] = test: as above
E28 [10] = test: as above
E57 [11] = test: as above
E34 [12] = test: as above
E13 [13] = test: as above
E31 [14] = test: as above
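Wherever phenotypic distance (Euclidean, principal components) from DMSO controls is given: cell Painting imaging in 384-well plates, CellProfiler features reduced to at least 20 principal components, Euclidean distance versus same-plate DMSO vehicle wells (0.1% v/v), median over six images per well.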
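Wherever surviving fraction (nuclei count normalised to DMSO) is given: nuclei counted by high-content imaging of Hoechst-stained cells in laminin-coated 384-well plates, relative to 0.1% DMSO vehicle wells, with staurosporine as cell-death control.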

Cc1cccn2c(=O)c(-c3nnn[nH]3)cnc12 [Pemirolast potassium]
Settings | phenotypic distance | surviving fraction
E13 [6], 4.1 nM | 0.849 | –
E13 [6], 12.3 nM | 0.649 | –
E13 [6], 37 nM | 2.3 | –
E13 [6], 111.1 nM | 0.669 | –
E13 [6], 333.3 nM | 3.24 | –
E13 [6], 1000 nM | 0.451 | –
E13 [6], 3000 nM | 0.784 | –
E13 [13], 4.1 nM | – | 0.925
E13 [13], 12.3 nM | – | 0.971
E13 [13], 37 nM | – | 1
E13 [13], 111.1 nM | – | 1.04
E13 [13], 333.3 nM | – | 0.947
E13 [13], 1000 nM | – | 0.974
E13 [13], 3000 nM | – | 1.18
E21 [1], 4.1 nM | 0.761 | –
E21 [1], 12.3 nM | 0.597 | –
E21 [1], 37 nM | 3.74 | –
E21 [1], 111.1 nM | 0.731 | –
E21 [1], 333.3 nM | 0.31 | –
E21 [1], 1000 nM | 0.294 | –
E21 [1], 3000 nM | 0.896 | –
E21 [8], 4.1 nM | – | 0.923
E21 [8], 12.3 nM | – | 0.982
E21 [8], 37 nM | – | 0.908
E21 [8], 111.1 nM | – | 0.88
E21 [8], 333.3 nM | – | 0.953
E21 [8], 1000 nM | – | 1.01
E21 [8], 3000 nM | – | 1.1
E28 [3], 4.1 nM | 0.658 | –
E28 [3], 12.3 nM | 0.636 | –
E28 [3], 37 nM | 0.677 | –
E28 [3], 111.1 nM | 0.665 | –
E28 [3], 333.3 nM | 0.613 | –
E28 [3], 1000 nM | 0.514 | –
E28 [3], 3000 nM | 0.875 | –
E28 [10], 4.1 nM | – | 1.07
E28 [10], 12.3 nM | – | 1.11
E28 [10], 37 nM | – | 1.06
E28 [10], 111.1 nM | – | 0.959
E28 [10], 333.3 nM | – | 1.14
E28 [10], 1000 nM | – | 1.05
E28 [10], 3000 nM | – | 1.22
E31 [7], 4.1 nM | 1.22 | –
E31 [7], 12.3 nM | 0.493 | –
E31 [7], 37 nM | 0.804 | –
E31 [7], 111.1 nM | 0.401 | –
E31 [7], 333.3 nM | 0.814 | –
E31 [7], 1000 nM | 0.403 | –
E31 [7], 3000 nM | 0.73 | –
E31 [14], 4.1 nM | – | 0.909
E31 [14], 12.3 nM | – | 0.917
E31 [14], 37 nM | – | 0.897
E31 [14], 111.1 nM | – | 0.921
E31 [14], 333.3 nM | – | 1.21
E31 [14], 1000 nM | – | 0.987
E31 [14], 3000 nM | – | 1.12
E34 [5], 4.1 nM | 1.15 | –
E34 [5], 12.3 nM | 0.672 | –
E34 [5], 37 nM | 0.605 | –
E34 [5], 111.1 nM | 0.603 | –
E34 [5], 333.3 nM | 0.641 | –
E34 [5], 1000 nM | 0.674 | –
E34 [5], 3000 nM | 0.547 | –
E34 [12], 4.1 nM | – | 1.09
E34 [12], 12.3 nM | – | 0.99
E34 [12], 37 nM | – | 1.04
E34 [12], 111.1 nM | – | 0.927
E34 [12], 333.3 nM | – | 1.15
E34 [12], 1000 nM | – | 1.03
E34 [12], 3000 nM | – | 1.11
E57 [4], 4.1 nM | 0.873 | –
E57 [4], 12.3 nM | 0.412 | –
E57 [4], 37 nM | 0.46 | –
E57 [4], 111.1 nM | 0.618 | –
E57 [4], 333.3 nM | 0.603 | –
E57 [4], 1000 nM | 0.198 | –
E57 [4], 3000 nM | 0.693 | –
E57 [11], 4.1 nM | – | 0.965
E57 [11], 12.3 nM | – | 0.992
E57 [11], 37 nM | – | 0.959
E57 [11], 111.1 nM | – | 1.09
E57 [11], 333.3 nM | – | 0.986
E57 [11], 1000 nM | – | 1.01
E57 [11], 3000 nM | – | 1.01
FT3469 [2], 4.1 nM | 1.49 | –
FT3469 [2], 12.3 nM | 0.577 | –
FT3469 [2], 37 nM | 0.829 | –
FT3469 [2], 111.1 nM | 0.485 | –
FT3469 [2], 333.3 nM | 0.522 | –
FT3469 [2], 1000 nM | 0.561 | –
FT3469 [2], 3000 nM | 1.16 | –
FT3469 [9], 4.1 nM | – | 1.01
FT3469 [9], 12.3 nM | – | 0.959
FT3469 [9], 37 nM | – | 1.08
FT3469 [9], 111.1 nM | – | 1.07
FT3469 [9], 333.3 nM | – | 1.19
FT3469 [9], 1000 nM | – | 1.09
FT3469 [9], 3000 nM | – | 1.23
